# Measurements as given in patent publication US20170355705A1 (GlaxoSmithKline Intellectual Property (No.2) Limited, priority 2014, published 2017).
# Structures can show the parent of a compound that is named as a salt.
# Biological target: T1, SIRT1 (Homo sapiens, UniProt Q96EB6)
# T1 sequence (Q96EB6 1-747): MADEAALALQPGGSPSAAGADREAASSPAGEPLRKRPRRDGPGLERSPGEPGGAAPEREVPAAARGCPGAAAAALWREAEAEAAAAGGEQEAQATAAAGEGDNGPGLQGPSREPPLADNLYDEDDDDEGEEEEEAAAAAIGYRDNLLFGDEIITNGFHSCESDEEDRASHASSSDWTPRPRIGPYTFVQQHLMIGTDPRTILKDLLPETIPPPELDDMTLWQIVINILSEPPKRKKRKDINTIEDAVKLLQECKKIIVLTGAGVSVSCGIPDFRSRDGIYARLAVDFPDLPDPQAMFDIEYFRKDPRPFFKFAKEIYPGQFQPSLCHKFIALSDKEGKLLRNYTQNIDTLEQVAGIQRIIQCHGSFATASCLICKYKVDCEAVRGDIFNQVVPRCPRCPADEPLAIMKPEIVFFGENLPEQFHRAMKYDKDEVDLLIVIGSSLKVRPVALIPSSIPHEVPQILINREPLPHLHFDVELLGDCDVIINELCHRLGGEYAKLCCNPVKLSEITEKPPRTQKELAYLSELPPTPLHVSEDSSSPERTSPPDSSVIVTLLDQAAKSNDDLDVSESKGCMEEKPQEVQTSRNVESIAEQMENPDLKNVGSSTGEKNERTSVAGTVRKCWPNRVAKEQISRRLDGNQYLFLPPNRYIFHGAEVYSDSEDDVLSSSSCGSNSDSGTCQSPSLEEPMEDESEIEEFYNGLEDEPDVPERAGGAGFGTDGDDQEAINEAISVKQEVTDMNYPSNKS
# Experiment: Trp mass spectrometry assay of SIRT1 activity (EC1.5, percent maximum activation)
# Format: biochemical
# Conditions: Trp mass spectrometry assay; for TRP Activity (EC1.5): EC1.5 = concentration giving 150% activation of SIRT1
# Method in brief: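 Steps: recombinant SIRT1 (N-His, bacterial) and NAD with p53-derived, norleucine-substituted 5TMR peptide; add compound at several concentrations; incubate 25 min; stop with 10% formic acid; freeze; quantify OAADPR by mass spec against control lacking compound.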
# [1] = percent maximum activation of SIRT1
# [2] = 0.5 μM peptide substrate, 120 μM βNAD+, 10 nM SIRT1, 25 minutes at 25° C.
TRP Activity (EC1.5),TRP MAX RESP (percent maximum fold activation) [1],TRP MAX RESP (percent maximum fold activation) [2],"TRP Activity (EC1.5, concentration of test compound that results in 150% activation of SIRT1) [2]",SMILES
–,A (Fold activation ≧150%),–,–,"C[C@@H]1CN(c2ccc3c(n2)N(C(=O)Nc2cnccn2)[C@H]2CCN3C2)CCO1 [Example 124, (4S)-7-((R)-2-methylmorpholino)-N-(pyrazin-2-yl)-3,4-dihydro-1,4-methanopyrido[2,3-b][1,4]diazepine-5(2H)-carboxamide]"
A (EC1.5<1 μM),A (Fold activation ≧150%),–,–,"Cc1cc(-c2ccc3c(n2)N(C(=O)Nc2ccc4c(c2)OCCCO4)[C@H]2CCN3C2)ccn1 [Example 126, (4S)-N-(3,4-dihydro-2H-benzo[b][1,4]dioxepin-7-yl)-7-(2-methylpyridin-4-yl)-3,4-dihydro-1,4-methanopyrido[2,3-b][1,4]diazepine-5(2H)-carboxamide]"
B (EC1.5 1-25 μM),A (Fold activation ≧150%),–,–,"Cc1cc(-c2ccc3c(n2)N(C(=O)Nc2ccc4[nH]cnc4n2)[C@H]2CCN3C2)ccn1 [Example 189, (4S)-N-(1H-imidazo[4,5-b]pyridin-5-yl)-7-(2-methylpyridin-4-yl)-3,4-dihydro-1,4-methanopyrido[2,3-b][1,4]diazepine-5(2H)-carboxamide]"
–,–,A (Fold activation ≧150%),–,Cc1cc(-c2ccc3c(n2)N(C(=O)Nc2cc(N4CCCC4)ccn2)[C@H]2CCN3C2)ccn1 [Example 367]
–,–,A (Fold activation ≧150%),B (EC1.5 1-25 μM),"Cc1ccc(-c2ccc3c(n2)N(C(=O)Nc2cncc(C)n2)[C@H]2CCN3C2)cn1 [Example 238, (4S)-N-(6-methylpyrazin-2-yl)-7-(6-methylpyridin-3-yl)-3,4-dihydro-1,4-methanopyrido[2,3-b][1,4]diazepine-5(2H)-carboxamide]"
C (EC1.5>25 μM),B (Fold Activation <150%),–,–,"Cc1cc(-c2ccc3c(n2)N(C(=O)Nc2cnncn2)[C@H]2CCN3C2)ccn1 [Example 187, (4S)-7-(2-methylpyridin-4-yl)-N-(1,2,4-triazin-5-yl)-3,4-dihydro-1,4-methanopyrido[2,3-b][1,4]diazepine-5(2H)-carboxamide]"
B (EC1.5 1-25 μM),A (Fold activation ≧150%),–,–,"Cc1cc(-c2ccc3c(n2)N(C(=O)Nc2cccc4nnc(C)cc24)[C@H]2CCN3C2)ccn1 [Example 153, (4S)-N-(3-methylcinnolin-5-yl)-7-(2-methylpyridin-4-yl)-3,4-dihydro-1,4-methanopyrido[2,3-b][1,4]diazepine-5(2H)-carboxamide]"
A (EC1.5<1 μM),A (Fold activation ≧150%),–,–,"O=C(Nc1ccnc(OC[C@H](O)CO)n1)N1c2nc(-c3cccc(C(F)(F)F)c3)ccc2N2CC[C@H]1C2 [Example 127, (4S)-N-(2-((R)-2,3-dihydroxypropoxy)pyrimidin-4-yl)-7-(3-(trifluoromethyl)phenyl)-3,4-dihydro-1,4-methanopyrido[2,3-b][1,4]diazepine-5(2H)-carboxamide]"
–,–,A (Fold activation ≧150%),B (EC1.5 1-25 μM),"Cc1cc(-c2ccc3c(n2)N(C(=O)Nc2cc(-c4cnc(C)o4)ccn2)C2CCN3C2)ccn1 (stereo in doubt) [Example 335, (4S)-N-(4-(2-methyloxazol-5-yl)pyridin-2-yl)-7-(2-methylpyridin-4-yl)-3,4-dihydro-1,4-methanopyrido[2,3-b][1,4]diazepine-5(2H)-carboxamide, Hydrochloride]"

# The remaining lines, values behind:
SMILES,TRP Activity (EC1.5),TRP MAX RESP (percent maximum fold activation) [1],TRP MAX RESP (percent maximum fold activation) [2],"TRP Activity (EC1.5, concentration of test compound that results in 150% activation of SIRT1) [2]"
"Cc1cc(-c2nc3c(c(C)c2C)N2CC[C@@H](C2)N3C(=O)Nc2ccccn2)ccn1 [Example 25, (4S)-8,9-dimethyl-7-(2-methylpyridin-4-yl)-N-(pyridin-2-yl)-3,4-dihydro-1,4-methanopyrido[2,3-b][1,4]diazepine-5(2H)-carboxamide]",B (EC1.5 1-25 μM),A (Fold activation ≧150%),–,–
"COc1ncc(C(F)(F)F)cc1-c1nc2c(cc1Cl)N1CC[C@@H](C1)N2C(=O)Nc1ccnc(OC[C@@H](O)CO)c1 [Example 103, (4S)-8-chloro-N-(2-((S)-2,3-dihydroxypropoxy)pyridin-4-yl)-7-(2-methoxy-5-(trifluoromethyl)pyridin-3-yl)-3,4-dihydro-1,4-methanopyrido[2,3-b][1,4]diazepine-5(2H)-carboxamide]",B (EC1.5 1-25 μM),A (Fold activation ≧150%),–,–
"Cc1cc(-c2nc3c(cc2F)N2CC[C@@H](C2)N3C(=O)Nc2ccccn2)ccn1 [Example 15, (4S)-8-fluoro-7-(2-methylpyridin-4-yl)-N-(pyridin-2-yl)-3,4-dihydro-1,4-methanopyrido[2,3-b][1,4]diazepine-5(2H)-carboxamide]",A (EC1.5<1 μM),A (Fold activation ≧150%),–,–
"O=C(Nc1cncc(OC[C@@H](O)CO)c1)N1c2nc(-c3cccc(C(F)(F)F)c3)c(Cl)cc2N2CC[C@H]1C2 [Example 78, (4S)-8-chloro-N-(5-((S)-2,3-dihydroxypropoxy)pyridin-3-yl)-7-(3-(trifluoromethyl)phenyl)-3,4-dihydro-1,4-methanopyrido[2,3-b][1,4]diazepine-5(2H)-carboxamide]",A (EC1.5<1 μM),A (Fold activation ≧150%),–,–
"Cc1cc(-c2ccc3c(n2)N(C(=O)Nc2ccc4c(c2)OCCO4)[C@H]2CCN3C2)ccn1 [Example 121, (4S)-N-(2,3-dihydrobenzo[b][1,4]dioxin-6-yl)-7-(2-methylpyridin-4-yl)-3,4-dihydro-1,4-methanopyrido[2,3-b][1,4]diazepine-5(2H)-carboxamide]",B (EC1.5 1-25 μM),A (Fold activation ≧150%),–,–
"O=C(Nc1cc(OC[C@@H](O)CO)ccn1)N1c2nc(-c3cccc(C(F)(F)F)c3)c(Cl)cc2N2CC[C@H]1C2 [Example 63, (4S)-8-chloro-N-(4-((S)-2,3-dihydroxypropoxy)pyridin-2-yl)-7-(3-(trifluoromethyl)phenyl)-3,4-dihydro-1,4-methanopyrido[2,3-b][1,4]diazepine-5(2H)-carboxamide]",B (EC1.5 1-25 μM),A (Fold activation ≧150%),–,–
"Cc1cc(-c2nc3c(cc2Cl)N2CC[C@@H](C2)N3C(=O)Nc2cncc(OC[C@@H](O)CO)n2)ccn1 [Example 98, (4S)-8-chloro-N-(6-((S)-2,3-dihydroxypropoxy)pyrazin-2-yl)-7-(2-methylpyridin-4-yl)-3,4-dihydro-1,4-methanopyrido[2,3-b][1,4]diazepine-5(2H)-carboxamide]",C (EC1.5>25 μM),B (Fold Activation <150%),–,–
"Cc1cc(-c2nc3c(c(C)c2C)N2CC[C@@H](C2)N3C(=O)Nc2cccnc2)ccn1 [Example 91, (4S)-8,9-dimethyl-7-(2-methylpyridin-4-yl)-N-(pyridin-3-yl)-3,4-dihydro-1,4-methanopyrido[2,3-b][1,4]diazepine-5(2H)-carboxamide]",B (EC1.5 1-25 μM),A (Fold activation ≧150%),–,–
